From patent US8569447B2, “Cell-permeable peptide inhibitors of the JNK signal transduction pathway” (Xigen SA, priority 2003, dated 2013)
Non-standard residues stand in square brackets, D forms with d. Residues, ends and D or L forms follow the SMILES beside them.

Tests used:
[1] = Rotarod test of motor coordination; format: in vivo, mice; conditions: for motor coordination (rotarod), overall: doses of Table 2: D-JNKI i.p. and icv, MK-801 1 mg/Kg i.p.
Experimental: Typically, the high toxicity of other neuroprotective compounds has severely limited their clinical use. (See Gladstone et al., Stroke, 33:2123-36 (2002), incorporated by reference in its entirety). The ability of mice to maintain themselves on horizontal turning rotarod was used as criterion for possible side effects of different doses of D-JNKI and of a therapeutic dose of MK-801 (1 mg/Kg, a standard therapeutic dose). […] (11 and 110 mg/Kg) and icv injections of D-JNKI (2 μl containing 15.7 ng or 157 ng of D-JNKI). The i.p. injection of MK-801 (1 mg/Kg) was used as a control compound during this assessment procedure.
The mice were trained the day before and in the morning of the experimental day, in order to reduce the variability between subjects. Both training and test sessions were identical for control and injected mice. […] The mice were placed on the rotarod, which was programmed to accelerate uniformly from 4 to 40 rpm. The latency to falls for each mouse tested was recorded. The results of this assessment using the rotarod method are presented in Table 2 as median latency to fall (measured in seconds).

[2] = Systolic and diastolic blood pressure after D-JNKI injection; format: in vivo, mice; conditions: 10 minutes before until 30 minutes after injection
Text: Using male ICR-CD1 mice (approximately 6 weeks old and weighing in the range of about 18 to 37 g) (Harlan, Inc.), ischemia was provoked by introducing a filament from the common carotid artery into the internal carotid artery and advancing the filament into the arterial circle, thereby occluding the middle cerebral artery. See, e.g., Huang et al., Science, 265:1883-85 (1994); Hara et al., Proc. Natl. Acad. Sci. (USA) 94:2007-12 (1997); each of which is hereby incorporated by reference in its entirety. Regional cerebral blood flow was measured by laser-Doppler flowmetry with a probe fixed on the skull throughout the ischemia and until 10 minutes after reperfusion. Rectal temperature was measured and maintained at 37° C. The animals were sacrificed 48 hours after reperfusion. Serial cryostat sections […] were traced using a computer-microscope system equipped with the Neurolucida program (Microbrightfield, Inc.), and the volumes of the ischemic area and of the whole brain were calculated (blind) with the Neuroexplorer program. Systolic and diastolic blood pressure were measured with an arterial catheter in three additional mice from 10 minutes before the D-JNKI injection until 30 minutes afterwards. […] The Guidelines of the Swiss Federal Veterinary Office were followed in all experiments.

JNK = conditions: JBDs of IB1 and IB2; cited from earlier work
recombinant JNK1α1 = recombinant JNK1α1 (Homo sapiens, UniProt P45983); experiment: In vitro kinase assay with recombinant JNK1α1; format: biochemical
Experimental: Cellular extracts were prepared by scraping cells in lysis buffer (20 mM Tris-acetate, 1 mM EGTA, 1% Triton X-100, 10 mM p-nitrophenyl-phosphate, 5 mM sodium pyrophosphate, 10 mM β-glycerophosphate, 1 mM dithiothreitol). 25 μg samples were incubated for 1 hour at room temperature with 1 μg GST-c-Jun (amino acid residues 1-89) and 10 μL glutathione-agarose beads (Sigma). The beads were washed four times and then resuspended in the lysis buffer described above. In vitro kinase assays were then performed using recombinant JNK1α1 and 0.5 μg of a substrate selected from the group consisting of GST-fusion proteins (e.g., GST-Jun and GST-Elk1 fusion proteins), casein and histone (Sigma). Reactions were initiated with 10 mM MgCl2 and 10 μM ATP in the presence of 5 μCi ^33P-ATP, and were incubated for 30 minutes at 30° C. The reaction products were separated by SDS-PAGE, and the gels were dried and then exposed to X-ray films (Kodak).
The terms “P-Jun” and “P-Elk1,” as used herein, refer to the radiolabeled (i.e., phosphorylated with ^33P-ATP) forms of GST-Jun and GST-Elk1 substrates, respectively.

βTC-3 cell cultures = experiment: Cellular import of fluorescein-labeled peptides; format: cell-based; conditions: 1 μM, βTC-3 cells
Experimental: The ability of the L- and D-enantiomeric forms of TAT, TAT-IB1 and TAT-IB2 peptides (“TAT-IB peptides”) to enter cells were evaluated.
Labeled peptides (1 μM) were added to βTC-3 cell cultures, which were maintained as described in Example 3. At predetermined times, cells were washed with PBS and fixed for five minutes in ice-cold methanol-acetone (1:1) before being examined under a fluorescence microscope. Fluorescein-labeled BSA (1 μM, 12 moles/mole BSA) was used as a control.

recombinant JNK1α1, sequence (P45983 1-384 isoform P45983-2, species assumed): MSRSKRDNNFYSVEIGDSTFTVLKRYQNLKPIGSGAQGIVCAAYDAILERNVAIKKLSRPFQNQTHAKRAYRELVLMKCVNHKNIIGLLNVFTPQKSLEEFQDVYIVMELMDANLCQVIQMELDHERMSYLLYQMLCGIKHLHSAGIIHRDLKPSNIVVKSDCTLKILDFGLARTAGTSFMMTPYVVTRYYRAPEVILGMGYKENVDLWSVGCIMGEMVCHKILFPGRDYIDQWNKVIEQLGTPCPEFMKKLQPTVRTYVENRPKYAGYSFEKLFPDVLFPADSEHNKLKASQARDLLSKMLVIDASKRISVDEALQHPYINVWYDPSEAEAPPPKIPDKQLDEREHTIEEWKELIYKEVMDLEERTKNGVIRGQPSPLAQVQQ

CC(C)C[C@@H](NC(=O)[C@@H](Cc1ccccc1)NC(=O)[C@H]1CCCN1C(=O)[C@@H](CCC(N)=O)NC(=O)[C@H](NC(=O)[C@H]1CCCN1C(=O)[C@@H](CCCNC(=N)N)NC(=O)[C@@H](CO)NC(=O)[C@@H](CCC(N)=O)NC(=O)[C@@H](CC(=O)O)NC(=O)[C@H](N)[C@H](C)O)C(C)C)C(=O)N[C@H](CC(N)=O)C(=O)N[C@H](CC(C)C)C(=O)N[C@@H](C(=O)N[C@@H](C(=O)N1CCC[C@@H]1C(=O)N[C@H](CCCNC(=N)N)C(=O)N[C@H](CCCCN)C(=O)N1CCC[C@@H]1C(=O)N[C@H](CCCNC(=N)N)C(=O)N1CCC[C@@H]1C(=O)N1CCC[C@@H]1C(=O)N[C@H](CCCNC(=N)N)C(=O)N[C@H](CCCNC(=N)N)C(=O)N[C@H](CCCNC(=N)N)C(=O)N[C@H](CCC(N)=O)C(=O)N[C@H](CCCNC(=N)N)C(=O)N[C@H](CCCNC(=N)N)C(=O)N[C@H](CCCCN)C(=O)N[C@H](CCCCN)C(=O)N[C@H](CCCNC(=N)N)C(=O)NCC(=O)O)[C@H](C)O)[C@H](C)O [D-JNKI, TDQSRPVQPF LNLTTPRKPR PPRRRQR RKKRG] (H-[dT][dD][dQ][dS][dR][dP][dV][dQ][dP][dF][dL][dN][dL][dT][dT][dP][dR][dK][dP][dR][dP][dP][dR][dR][dR][dQ][dR][dR][dK][dK][dR]G-OH)
Median Latency to Fall ([1]; 15.7 ng icv, 1 day): 302 s
Median Latency to Fall ([1]; 15.7 ng icv, 6 days): 345 s
Median Latency to Fall ([1]; 15.7 ng icv, 12 days): 285 s
Median Latency to Fall ([1]; 15.7 ng icv, +3 hours): 342 s
Median Latency to Fall ([1]; 15.7 ng icv, −1 hour): 210 s
Median Latency to Fall ([1]; 157 ng icv, 1 day): 253 s
Median Latency to Fall ([1]; 157 ng icv, 6 days): 338 s
Median Latency to Fall ([1]; 157 ng icv, 12 days): 335 s
Median Latency to Fall ([1]; 157 ng icv, +3 hours): 200 s
Median Latency to Fall ([1]; 157 ng icv, −1 hour): 260 s
Median Latency to Fall ([1]; 11 mg/Kg i.p., 1 day): 372 s
Median Latency to Fall ([1]; 11 mg/Kg i.p., 6 days): 287 s
Median Latency to Fall ([1]; 11 mg/Kg i.p., 12 days): 418 s
Median Latency to Fall ([1]; 11 mg/Kg i.p., +3 hours): 221 s
Median Latency to Fall ([1]; 11 mg/Kg i.p., −1 hour): 204 s
Median Latency to Fall ([1]; 110 mg/Kg i.p., 1 day): 447 s
Median Latency to Fall ([1]; 110 mg/Kg i.p., 6 days): 416 s
Median Latency to Fall ([1]; 110 mg/Kg i.p., 12 days): 325 s
Median Latency to Fall ([1]; 110 mg/Kg i.p., +3 hours): 266 s
Median Latency to Fall ([1]; 110 mg/Kg i.p., −1 hour): 276 s
motor impairment ([1]; at 6 and 15 days following treatment): no sign of motor impairment
motor coordination (rotarod), overall [1]: unimpaired
change of blood pressure [2]: less than 10%

C[C@]12N[C@H](Cc3ccccc31)c1ccccc12 [MK-801, reference compound]
Median Latency to Fall ([1]; 1 mg/Kg i.p., 1 day): 174 s
Median Latency to Fall ([1]; 1 mg/Kg i.p., 6 days): 233 s
Median Latency to Fall ([1]; 1 mg/Kg i.p., 12 days): 292 s
Median Latency to Fall ([1]; 1 mg/Kg i.p., +3 hours): incapable
Median Latency to Fall ([1]; 1 mg/Kg i.p., −1 hour): 226 s
lethality ([1]; 10-fold higher dose of MK-801): killed all the mice
motor coordination (rotarod), overall [1]: dramatic impairment of motor coordination
time after which side effects essentially disappear ([1]; lower dose of MK-801 (1 mg/Kg i.p.)): 24 h

PGTGCGDTYRPKRPTTLNLFPQVPRSQDT (PGTGCGDTYRPKRPTTLNLFPQVPRSQDT) [IB1-long]
efficiency in binding JNK relative to c-Jun or ATF2 (JNK): approximately 100 fold

N=C(N)NCCC[C@H](NC(=O)[C@H](CCCNC(=N)N)NC(=O)[C@H](CCCNC(=N)N)NC(=O)[C@H](CCC(N)=O)NC(=O)[C@H](CCCNC(=N)N)NC(=O)[C@H](CCCNC(=N)N)NC(=O)[C@H](CCCCN)NC(=O)[C@H](CCCCN)NC(=O)[C@H](CCCNC(=N)N)NC(=O)CN)C(=O)O [L-TAT, reference compound]
concentration at which the TAT sequence induces nonspecific precipitation of the proteins in the extracts (recombinant JNK1α1): greater than 50 μM

IPSPSVEEPHKHRPTTLRLTTLGAQDS (IPSPSVEEPHKHRPTTLRLTTLGAQDS) [IB2-long]
efficiency in binding JNK relative to c-Jun or ATF2 (JNK): approximately 100 fold

fluorescein labeled bovine serum albumin: fluorescein labeled BSA (12 moles fluorescein/mole BSA) used as a control
entry into cells (βTC-3 cell cultures): did not enter the cells
